Experimental data: patent US20250051319A1 (AUGUSTINE THERAPEUTICS, priority 2021, published 2025)

Tests used:
[1] = biological target: catalytic domain 2 (CD2) of HDAC6 (Homo sapiens (Human), UniProt Q9UBN7); experiment: Cellular target engagement assay - NanoBRET; format: cell-based; conditions: NanoLuc-HDAC6(CD2) in HEK293T cells, 2 hours, read-out: IC50 (HDAC6(CD2) interaction)
[2] = biological target: human full-length recombinant HDAC6 (Homo sapiens (Human), UniProt Q9UBN7); experiment: HDAC6 enzymatic activity assay (Reaction Biology Corporation, RHKKAc fluorogenic peptide); format: biochemical; conditions: Reaction Biology Corporation protocol, RHKKAc fluorogenic peptide 10 μM; read-out: HDAC6 biochem
Sequence of human full-length recombinant HDAC6 (Q9UBN7 whole entry): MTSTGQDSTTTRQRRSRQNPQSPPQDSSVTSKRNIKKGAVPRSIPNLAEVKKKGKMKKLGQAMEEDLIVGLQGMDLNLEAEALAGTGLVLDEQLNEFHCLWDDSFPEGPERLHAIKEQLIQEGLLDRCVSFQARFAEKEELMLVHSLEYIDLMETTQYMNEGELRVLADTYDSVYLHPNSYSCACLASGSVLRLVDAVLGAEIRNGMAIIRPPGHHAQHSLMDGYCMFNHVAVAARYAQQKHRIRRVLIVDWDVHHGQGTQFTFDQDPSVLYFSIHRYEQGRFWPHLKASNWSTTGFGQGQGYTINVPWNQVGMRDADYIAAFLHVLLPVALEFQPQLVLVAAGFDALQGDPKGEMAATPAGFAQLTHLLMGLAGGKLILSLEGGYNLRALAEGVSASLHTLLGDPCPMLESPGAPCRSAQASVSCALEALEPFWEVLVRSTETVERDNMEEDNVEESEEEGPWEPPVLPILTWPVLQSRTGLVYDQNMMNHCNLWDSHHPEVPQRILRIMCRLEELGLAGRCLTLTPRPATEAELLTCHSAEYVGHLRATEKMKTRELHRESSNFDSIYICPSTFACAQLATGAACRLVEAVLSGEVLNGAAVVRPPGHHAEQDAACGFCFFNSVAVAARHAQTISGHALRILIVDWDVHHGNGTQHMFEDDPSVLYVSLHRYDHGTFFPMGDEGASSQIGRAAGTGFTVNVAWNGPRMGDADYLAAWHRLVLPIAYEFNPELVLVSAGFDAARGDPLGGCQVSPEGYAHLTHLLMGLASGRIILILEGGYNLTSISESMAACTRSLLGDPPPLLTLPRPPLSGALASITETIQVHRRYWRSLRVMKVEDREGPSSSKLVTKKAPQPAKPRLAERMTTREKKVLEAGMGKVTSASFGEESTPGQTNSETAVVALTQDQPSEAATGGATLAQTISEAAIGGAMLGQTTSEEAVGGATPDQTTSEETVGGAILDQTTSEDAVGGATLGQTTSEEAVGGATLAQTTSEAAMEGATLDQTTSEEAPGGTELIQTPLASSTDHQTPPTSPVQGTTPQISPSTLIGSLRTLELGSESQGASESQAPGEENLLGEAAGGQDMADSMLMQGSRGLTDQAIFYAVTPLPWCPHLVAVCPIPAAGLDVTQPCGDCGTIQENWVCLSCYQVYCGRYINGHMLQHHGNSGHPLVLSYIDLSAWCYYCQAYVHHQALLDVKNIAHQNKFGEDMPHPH
Method: (§1) Dose response testing of HDAC6 and HDAC 1 were run at Reaction Biology Corporation (RBC). Inhibition of HDAC enzymes was performed using N-terminal GST tagged human full-length recombinant HDAC6 (H88-30G, SignalChem) and C-terminal FLAG His tag human full-length recombinant HDAC1 produced in insect cells (KDA-21-365, RBC). Enzyme reactions were run in 50 mM Tris-HCl, pH8.0, 137 mM NaCl, 2.7 mM KCl, and 1 mM MgCl2 with 1 mg/ml BSA, 1% DMSO freshly added. 2× enzyme was delivered in the wells of the reaction plate except for the “no enzyme” control wells. In the latter, buffer was added. Compounds in 100% DMSO were delved into the enzyme mixture by acoustic technology (Echo550). Plates are spun down and compounds were incubation with the enzyme for 10 min at room temperature. 2× Fluorogenic peptide from p53 residues 379-382 (RHKKAc, 10 μM final concentration) was added in all wells to initiate the reaction, followed by 1 h incubation at 30° C. Developer containing Trichostatin A was added to stop the reaction and generate fluorescent color. A kinetic measurement was carried out for 20 min with 5 min interval on the Envision plate reader (Perkin Elmer, Ex/Em=360/460). End point reading i.e., plateau of the development reaction was used for analysis. Data was reported by RBC as percentage enzyme activity. Percentage inhibition was calculated by subtracting percentage enzyme activity from 100. IC50 values were calculated using GraphPad Prism 9 based on the log(inhibitor) vs. response—Variable slope (four parameters) equation.

[3] = biological target: human full-length recombinant HDAC1 (Homo sapiens (Human), UniProt Q13547); experiment: HDAC1 enzymatic activity assay (Reaction Biology Corporation, RHKKAc fluorogenic peptide); format: biochemical; conditions: Reaction Biology Corporation protocol, RHKKAc fluorogenic peptide 10 μM; read-out: HDAC1 biochem
Sequence of human full-length recombinant HDAC1 (Q13547 whole entry): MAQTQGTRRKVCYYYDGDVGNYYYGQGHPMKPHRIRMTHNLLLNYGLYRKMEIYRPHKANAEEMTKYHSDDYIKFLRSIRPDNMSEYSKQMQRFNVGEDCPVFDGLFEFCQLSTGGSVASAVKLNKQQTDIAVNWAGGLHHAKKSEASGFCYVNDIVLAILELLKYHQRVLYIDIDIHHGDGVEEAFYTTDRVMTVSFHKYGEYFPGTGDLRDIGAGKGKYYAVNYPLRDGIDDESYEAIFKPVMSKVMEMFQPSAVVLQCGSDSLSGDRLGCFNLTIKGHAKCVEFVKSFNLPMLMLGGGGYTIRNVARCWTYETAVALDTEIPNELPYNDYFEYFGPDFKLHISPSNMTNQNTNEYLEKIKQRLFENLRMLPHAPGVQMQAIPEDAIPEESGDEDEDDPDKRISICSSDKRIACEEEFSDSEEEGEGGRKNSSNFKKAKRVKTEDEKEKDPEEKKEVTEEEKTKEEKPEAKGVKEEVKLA
Method: as §1

Sequence of catalytic domain 2 (CD2) of HDAC6 (Q9UBN7 482-800): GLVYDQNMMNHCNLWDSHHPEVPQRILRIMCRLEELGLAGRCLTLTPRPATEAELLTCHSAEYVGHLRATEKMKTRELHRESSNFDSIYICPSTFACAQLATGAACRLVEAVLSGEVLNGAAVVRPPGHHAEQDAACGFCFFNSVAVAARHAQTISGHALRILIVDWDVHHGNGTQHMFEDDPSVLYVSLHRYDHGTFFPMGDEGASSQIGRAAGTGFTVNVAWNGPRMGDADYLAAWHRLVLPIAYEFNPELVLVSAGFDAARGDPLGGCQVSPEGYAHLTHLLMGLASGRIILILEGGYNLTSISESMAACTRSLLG

Row | IC50 [1] [nM] | IC50 [2] [nM] | IC50 [3] [nM] | Compound
1 | ≤ 100 | ≤ 100 | > 10000 | O=C(CO)NCc1ccc(C(=O)CSc2nc(C(F)(F)F)nc3c2cnn3C2CC2)s1 [Compound 133, N-((5-(2-((1-cyclopropyl-6-(trifluoromethyl)-1H-pyrazolo[3,4-d]pyrimidin-4-yl)thio)acetyl)thiophen-2-yl)methyl)-2-hydroxyacetamide]
2 | ≤ 100 | ≤ 100 | > 10000 | O=C(CO)NCc1ccc(C(=O)CSc2nc(C(F)(F)F)nc3cccnc23)s1 [Compound 152, 2-hydroxy-N-((5-(2-((2-(trifluoromethyl)pyrido[3,2-d]pyrimidin-4-yl)thio)acetyl)thiophen-2-yl)methyl)acetamide]
3 | ≤ 100 | ≤ 100 | > 10000 | Cc1nc(SCC(=O)c2ccc(CNC(=O)CO)s2)c2cc(Cl)cc(F)c2n1 [Compound 142, N-((5-(2-((6-chloro-8-fluoro-2-methylquinazolin-4-yl)thio)acetyl)thiophen-2-yl)methyl)-2-hydroxyacetamide]
4 | ≤ 100 | ≤ 100 | > 10000 | O=C(CO)NCc1ccc(C(=O)CSc2nc3ccc(C(F)(F)F)nc3o2)s1 [Compound 117, 2-hydroxy-N-((5-(2-((5-(trifluoromethyl)oxazolo[5,4-b]157yrrolid-2-yl)thio)acetyl)thiophen-2-yl)methyl)acetamide]
5 | 100 to 500 | ≤ 100 | > 10000 | O=C(CSc1nc(C(F)(F)F)nc2nn(C3CC3)cc12)c1ccc(CNC(=O)C2CC2(F)F)s1 (stereo not drawn) [Example 43, N-((5-(2-((2-cyclopropyl-6-(trifluoromethyl)-2H-pyrazolo[3,4-d]pyrimidin-4-yl)thio)acetyl)thiophen-2-yl)methyl)-2,2-difluorocyclopropane-1-carboxamide]
6 | ≤ 100 | ≤ 100 | > 10000 | Cc1nc(SCC(=O)c2ccc(CNC(=O)CO)s2)c2cc(OC(F)(F)F)ccc2n1 [Compound 126, 2-hydroxy-N-((5-(2-((2-methyl-6-(trifluoromethoxy)quinazolin-4-yl)thio)acetyl)thiophen-2-yl)methyl)acetamide]
7 | ≤ 100 | ≤ 100 | > 10000 | Cc1nc(SCC(=O)c2ccc(CNC(=O)CO)s2)c2cc(Cl)c(F)cc2n1 [Compound 73, N-((5-(2-((6-chloro-7-fluoro-2-methylquinazolin-4-yl)thio)acetyl)thiophen-2-yl)methyl)-2-hydroxyacetamide]
8 | ≤ 100 | ≤ 100 | > 10000 | Cc1nc(SCC(=O)c2ccc(CNC(=O)CO)s2)c2cc(F)cnc2n1 [Compound 124, N-((5-(2-((6-fluoro-2-methylpyrido[2,3-d]pyrimidin-4-yl)thio)acetyl)thiophen-2-yl)methyl)-2-hydroxyacetamide]
9 | ≤ 100 | ≤ 100 | 1000 to 10000 | O=C(CO)NCc1ccc(C(=O)CSc2nc3cc(C(F)(F)F)ncc3o2)s1 [Compound 71, 2-hydroxy-N-((5-(2-((6-(trifluoromethyl)oxazolo[5,4-c]156yrrolid-2-yl)thio)acetyl)thiophen-2-yl)methyl)acetamide]
10 | ≤ 100 | ≤ 100 | > 10000 | O=C(CO)NCc1ccc(C(=O)CSc2nc(C(F)(F)F)nc3ncccc23)s1 [Compound 113, 2-hydroxy-N-((5-(2-((2-(trifluoromethyl)pyrido[2,3-d]pyrimidin-4-yl)thio)acetyl)thiophen-2-yl)methyl)acetamide]
11 | ≤ 100 | ≤ 100 | > 10000 | COc1ccc2nc(C)nc(SCC(=O)c3ccc(CNC(=O)CO)s3)c2c1 [Example 60, 2-Hydroxy-N-((5-(2-((6-methoxy-2-methylquinazolin-4-yl)thio)acetyl)thiophen-2-yl)methyl)acetamide]
12 | 100 to 500 | ≤ 100 | > 10000 | O=C(CSc1nc(C(F)(F)F)nc2nn(C3CC3)cc12)c1ccc(CNC(=O)C(F)(F)C(F)(F)F)s1 [Example 44, N-((5-(2-((2-cyclopropyl-6-(trifluoromethyl)-2H-pyrazolo[3,4-d]pyrimidin-4-yl)thio)acetyl)thiophen-2-yl)methyl)-2,2,3,3,3-pentafluoropropanamide]
13 | ≤ 100 | ≤ 100 | > 10000 | Cc1nc(SCC(=O)c2ccc(CNC(=O)CO)s2)c2cc(N3CCN(C)CC3)ccc2n1 [Compound 85, 2-hydroxy-N-((5-(2-((2-methyl-6-(4-methylpiperazin-1-yl)quinazolin-4-yl)thio)acetyl)thiophen-2-yl)methyl)acetamide]
14 | ≤ 100 | ≤ 100 | > 10000 | COCCn1cc2c(SCC(=O)c3ccc(CNC(=O)CO)s3)nc(C(F)(F)F)nc2n1 [Compound 132, 2-hydroxy-N-((5-(2-((2-(2-methoxyethyl)-6-(trifluoromethyl)-2H-pyrazolo[3,4-d]pyrimidin-4-yl)thio)acetyl)thiophen-2-yl)methyl)acetamide]
15 | ≤ 100 | ≤ 100 | > 10000 | Cc1nc(SCC(=O)c2ccc(CNC(=O)CO)s2)c2cccnc2n1 [Compound 64, 2-hydroxy-N-((5-(2-((2-methylpyrido[2,3-d]pyrimidin-4-yl)thio)acetyl)thiophen-2-yl)methyl)acetamide]
16 | ≤ 100 | ≤ 100 | > 10000 | Cc1nc(SCC(=O)c2ccc(CNC(=O)CO)s2)c2cc(C(F)(F)F)cnc2n1 [Compound 119, 2-hydroxy-N-((5-(2-((2-methyl-6-(trifluoromethyl)pyrido[2,3-d]pyrimidin-4-yl)thio)acetyl)thiophen-2-yl)methyl)acetamide]
17 | ≤ 100 | ≤ 100 | > 10000 | CCn1cc2c(SCC(=O)c3ccc(CNC(=O)CO)s3)nc(C(F)(F)F)nc2n1 [Compound 135, N-((5-(2-((2-ethyl-6-(trifluoromethyl)-2H-pyrazolo[3,4-d]pyrimidin-4-yl)thio)acetyl)thiophen-2-yl)methyl)-2-hydroxyacetamide]
18 | ≤ 100 | ≤ 100 | > 10000 | Cn1cc2c(SCC(=O)c3ccc(CNC(=O)CO)s3)nc(C(F)(F)F)nc2n1 [Compound 61, 2-hydroxy-N-((5-(2-((2-methyl-6-(trifluoromethyl)-2H-pyrazolo[3,4-d]pyrimidin-4-yl)thio)acetyl)thiophen-2-yl)methyl)acetamide]
19 | ≤ 100 | ≤ 100 | > 10000 | COc1cc(C(F)(F)F)cc2c(SCC(=O)c3ccc(CNC(=O)CO)s3)nc(C)nc12 [Compound 148, 2-hydroxy-N-((5-(2-((8-methoxy-2-methyl-6-(trifluoromethyl)quinazolin-4-yl)thio)acetyl)thiophen-2-yl)methyl)acetamide]
20 | ≤ 100 | ≤ 100 | > 10000 | O=C(CO)NCc1ccc(C(=O)CSc2nc(C(F)(F)F)nc3nn(C4CC4)cc23)s1 [Compound 79, N-((5-(2-((2-cyclopropyl-6-(trifluoromethyl)-2H-pyrazolo[3,4-d]pyrimidin-4-yl)thio)acetyl)thiophen-2-yl)methyl)-2-hydroxyacetamide]
21 | ≤ 100 | ≤ 100 | > 10000 | Cn1ncc2c(SCC(=O)c3ccc(CNC(=O)CO)s3)nc(C(F)(F)F)nc21 [Compound 74, 2-hydroxy-N-((5-(2-((1-methyl-6-(trifluoromethyl)-1H-pyrazolo[3,4-d]pyrimidin-4-yl)thio)acetyl)thiophen-2-yl)methyl)acetamide]
22 | ≤ 100 | ≤ 100 | > 10000 | COc1cnc2nc(C)nc(SCC(=O)c3ccc(CNC(=O)CO)s3)c2c1 [Compound 140, 2-hydroxy-N-((5-(2-((6-methoxy-2-methylpyrido[2,3-d]pyrimidin-4-yl)thio)acetyl)thiophen-2-yl)methyl)acetamide]
23 | ≤ 100 | ≤ 100 | > 10000 | Cc1nc(SCC(=O)c2ccc(CNC(=O)CO)s2)c2cc(C(F)(F)F)ccc2n1 [Compound 76, 2-hydroxy-N-((5-(2-((2-methyl-6-(trifluoromethyl)quinazolin-4-yl)thio)acetyl)thiophen-2-yl)methyl)acetamide]
